# In ChEMBL document CHEMBL5715260, “Selectivity Literature for EUbOPEN Chemogenomic Library” (2024):
# Where a SMILES comes first, the peptide text is derived from it. The star is where a group is joined. Cbz = O=C(OCc1ccccc1)*; CH2F = FC*
# What was measured:
# Design in all cases: recommended concentration 1 uM
# Caspase-8 [1] = biological target: T1, Caspase-8 (Homo sapiens, UniProt Q14790); assay: (§1) Selectivity interaction (Enzymatic assay) EUB0002178aAD CASP8
# Caspase-8 [2] = biological target: T1, Caspase-8; assay: as §1; remark: listed apart in the source
# Caspase-9 [3] = biological target: T2, Caspase-9 (Homo sapiens, UniProt P55211); assay: (§2) Selectivity interaction (Enzymatic assay) EUB0002178aAD CASP9
# T2 sequence (P55211 whole entry): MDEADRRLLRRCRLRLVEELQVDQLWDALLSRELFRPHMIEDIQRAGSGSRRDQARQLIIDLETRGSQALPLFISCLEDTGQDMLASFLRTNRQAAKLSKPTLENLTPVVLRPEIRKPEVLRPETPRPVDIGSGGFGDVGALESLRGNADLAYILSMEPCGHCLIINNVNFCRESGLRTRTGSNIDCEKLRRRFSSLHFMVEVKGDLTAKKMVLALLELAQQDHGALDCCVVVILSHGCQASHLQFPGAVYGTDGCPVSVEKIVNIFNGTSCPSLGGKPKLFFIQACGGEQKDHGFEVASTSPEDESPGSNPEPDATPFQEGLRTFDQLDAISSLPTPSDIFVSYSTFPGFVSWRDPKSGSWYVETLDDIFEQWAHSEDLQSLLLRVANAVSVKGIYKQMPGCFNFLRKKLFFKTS
# Caspase-7 [4] = biological target: T3, Caspase-7 (Homo sapiens, UniProt P55210); assay: (§3) Selectivity interaction (Enzymatic assay) EUB0002178aAD CASP7
# T3 sequence (P55210 whole entry): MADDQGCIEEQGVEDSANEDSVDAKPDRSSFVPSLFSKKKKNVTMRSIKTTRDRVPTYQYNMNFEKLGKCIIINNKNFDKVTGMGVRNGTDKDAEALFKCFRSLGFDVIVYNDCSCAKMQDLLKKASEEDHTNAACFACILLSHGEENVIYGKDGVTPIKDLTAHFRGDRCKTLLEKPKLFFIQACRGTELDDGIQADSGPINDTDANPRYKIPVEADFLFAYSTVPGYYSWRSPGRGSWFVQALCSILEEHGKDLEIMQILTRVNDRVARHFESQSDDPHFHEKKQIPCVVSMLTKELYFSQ
# Caspase-7 [5] = biological target: T3, Caspase-7; assay: as §3; remark: listed apart in the source
# Caspase-9 [6] = biological target: T2, Caspase-9; assay: as §2; remark: listed apart in the source
# Caspase-7 [7] = biological target: T3, Caspase-7; assay: Selectivity interaction (Eurofins (enzymatic assay)) EUB0002201a CASP7
# Caspase-6 = Caspase-6 (Homo sapiens, UniProt P55212); assay: Selectivity interaction (Eurofins (enzymatic assay)) EUB0002201a CASP6
# Sequence of Caspase-6 (P55212 24-179 limits assumed): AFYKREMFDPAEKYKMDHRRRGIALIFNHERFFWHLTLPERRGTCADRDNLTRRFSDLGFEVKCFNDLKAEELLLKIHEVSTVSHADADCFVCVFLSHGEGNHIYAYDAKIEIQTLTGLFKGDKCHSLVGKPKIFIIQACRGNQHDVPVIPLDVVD
# Sequence of Caspase-6 (P55212 194-293 limits assumed): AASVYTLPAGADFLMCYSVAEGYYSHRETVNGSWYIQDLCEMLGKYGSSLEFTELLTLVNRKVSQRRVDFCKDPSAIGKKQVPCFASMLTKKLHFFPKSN
# Caspase-2 = Caspase-2 (Homo sapiens, UniProt P42575); assay: Selectivity interaction (Eurofins (enzymatic assay)) EUB0002201a CASP2
# Caspase-10 = biological target: T4, Caspase-10 (Homo sapiens, UniProt Q92851); assay: Selectivity interaction (Eurofins (enzymatic assay)) EUB0002201a CASP10
# T4 sequence (Q92851 whole entry): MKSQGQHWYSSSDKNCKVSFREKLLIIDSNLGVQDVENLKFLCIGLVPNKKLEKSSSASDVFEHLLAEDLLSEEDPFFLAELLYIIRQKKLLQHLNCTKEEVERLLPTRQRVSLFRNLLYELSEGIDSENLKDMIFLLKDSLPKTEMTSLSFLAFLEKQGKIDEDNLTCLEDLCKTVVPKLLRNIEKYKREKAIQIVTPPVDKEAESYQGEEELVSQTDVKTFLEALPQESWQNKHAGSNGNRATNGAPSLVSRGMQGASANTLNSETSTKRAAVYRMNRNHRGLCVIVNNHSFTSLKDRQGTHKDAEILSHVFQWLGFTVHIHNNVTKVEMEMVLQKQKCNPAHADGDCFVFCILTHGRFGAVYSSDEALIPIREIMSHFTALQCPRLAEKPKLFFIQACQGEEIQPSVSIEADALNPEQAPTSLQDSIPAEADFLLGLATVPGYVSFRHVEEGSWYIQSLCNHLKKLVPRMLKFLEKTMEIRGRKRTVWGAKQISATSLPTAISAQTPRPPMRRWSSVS
# Caspase-3 = Caspase-3 (Homo sapiens, UniProt P42574); assay: Selectivity interaction (Eurofins (enzymatic assay)) EUB0002201a CASP3
# Caspase-9 [8] = biological target: T2, Caspase-9; assay: Selectivity interaction (Eurofins (enzymatic assay)) EUB0002201a CASP9
# Caspase-8 [9] = biological target: T1, Caspase-8; assay: Selectivity interaction (Eurofins (enzymatic assay)) EUB0002201a CASP8
# Caspase-5 = biological target: T5, Caspase-5 (Homo sapiens, UniProt P51878); assay: Selectivity interaction (Eurofins (enzymatic assay)) EUB0002201a CASP5
# T5 sequence (P51878 whole entry): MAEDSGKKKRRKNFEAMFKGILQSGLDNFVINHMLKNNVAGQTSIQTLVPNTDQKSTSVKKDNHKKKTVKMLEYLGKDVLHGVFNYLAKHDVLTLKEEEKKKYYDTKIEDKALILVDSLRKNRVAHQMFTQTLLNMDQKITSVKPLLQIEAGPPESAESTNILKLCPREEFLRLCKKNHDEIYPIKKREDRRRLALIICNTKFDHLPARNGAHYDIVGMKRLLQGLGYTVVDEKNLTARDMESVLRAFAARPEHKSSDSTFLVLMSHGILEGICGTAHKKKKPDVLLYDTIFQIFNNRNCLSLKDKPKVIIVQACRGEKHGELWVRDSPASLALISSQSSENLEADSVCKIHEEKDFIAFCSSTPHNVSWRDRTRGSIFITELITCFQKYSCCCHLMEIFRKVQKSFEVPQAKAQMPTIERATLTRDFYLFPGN
# [10] = biological target: N-lysine methyltransferase SMYD2 (Homo sapiens, UniProt Q9NRG4); assay: Selectivity interaction (Enzymatic assay) EUB0002243aAD SMYD2
# [11] = biological target: T6, Histone-lysine N-methyltransferase 2A (Homo sapiens, UniProt Q03164); assay: (§4) Selectivity interaction (Enzymatic assay) EUB0002166aAD MLL
# T6 sequence (Q03164 1-2718 limits assumed): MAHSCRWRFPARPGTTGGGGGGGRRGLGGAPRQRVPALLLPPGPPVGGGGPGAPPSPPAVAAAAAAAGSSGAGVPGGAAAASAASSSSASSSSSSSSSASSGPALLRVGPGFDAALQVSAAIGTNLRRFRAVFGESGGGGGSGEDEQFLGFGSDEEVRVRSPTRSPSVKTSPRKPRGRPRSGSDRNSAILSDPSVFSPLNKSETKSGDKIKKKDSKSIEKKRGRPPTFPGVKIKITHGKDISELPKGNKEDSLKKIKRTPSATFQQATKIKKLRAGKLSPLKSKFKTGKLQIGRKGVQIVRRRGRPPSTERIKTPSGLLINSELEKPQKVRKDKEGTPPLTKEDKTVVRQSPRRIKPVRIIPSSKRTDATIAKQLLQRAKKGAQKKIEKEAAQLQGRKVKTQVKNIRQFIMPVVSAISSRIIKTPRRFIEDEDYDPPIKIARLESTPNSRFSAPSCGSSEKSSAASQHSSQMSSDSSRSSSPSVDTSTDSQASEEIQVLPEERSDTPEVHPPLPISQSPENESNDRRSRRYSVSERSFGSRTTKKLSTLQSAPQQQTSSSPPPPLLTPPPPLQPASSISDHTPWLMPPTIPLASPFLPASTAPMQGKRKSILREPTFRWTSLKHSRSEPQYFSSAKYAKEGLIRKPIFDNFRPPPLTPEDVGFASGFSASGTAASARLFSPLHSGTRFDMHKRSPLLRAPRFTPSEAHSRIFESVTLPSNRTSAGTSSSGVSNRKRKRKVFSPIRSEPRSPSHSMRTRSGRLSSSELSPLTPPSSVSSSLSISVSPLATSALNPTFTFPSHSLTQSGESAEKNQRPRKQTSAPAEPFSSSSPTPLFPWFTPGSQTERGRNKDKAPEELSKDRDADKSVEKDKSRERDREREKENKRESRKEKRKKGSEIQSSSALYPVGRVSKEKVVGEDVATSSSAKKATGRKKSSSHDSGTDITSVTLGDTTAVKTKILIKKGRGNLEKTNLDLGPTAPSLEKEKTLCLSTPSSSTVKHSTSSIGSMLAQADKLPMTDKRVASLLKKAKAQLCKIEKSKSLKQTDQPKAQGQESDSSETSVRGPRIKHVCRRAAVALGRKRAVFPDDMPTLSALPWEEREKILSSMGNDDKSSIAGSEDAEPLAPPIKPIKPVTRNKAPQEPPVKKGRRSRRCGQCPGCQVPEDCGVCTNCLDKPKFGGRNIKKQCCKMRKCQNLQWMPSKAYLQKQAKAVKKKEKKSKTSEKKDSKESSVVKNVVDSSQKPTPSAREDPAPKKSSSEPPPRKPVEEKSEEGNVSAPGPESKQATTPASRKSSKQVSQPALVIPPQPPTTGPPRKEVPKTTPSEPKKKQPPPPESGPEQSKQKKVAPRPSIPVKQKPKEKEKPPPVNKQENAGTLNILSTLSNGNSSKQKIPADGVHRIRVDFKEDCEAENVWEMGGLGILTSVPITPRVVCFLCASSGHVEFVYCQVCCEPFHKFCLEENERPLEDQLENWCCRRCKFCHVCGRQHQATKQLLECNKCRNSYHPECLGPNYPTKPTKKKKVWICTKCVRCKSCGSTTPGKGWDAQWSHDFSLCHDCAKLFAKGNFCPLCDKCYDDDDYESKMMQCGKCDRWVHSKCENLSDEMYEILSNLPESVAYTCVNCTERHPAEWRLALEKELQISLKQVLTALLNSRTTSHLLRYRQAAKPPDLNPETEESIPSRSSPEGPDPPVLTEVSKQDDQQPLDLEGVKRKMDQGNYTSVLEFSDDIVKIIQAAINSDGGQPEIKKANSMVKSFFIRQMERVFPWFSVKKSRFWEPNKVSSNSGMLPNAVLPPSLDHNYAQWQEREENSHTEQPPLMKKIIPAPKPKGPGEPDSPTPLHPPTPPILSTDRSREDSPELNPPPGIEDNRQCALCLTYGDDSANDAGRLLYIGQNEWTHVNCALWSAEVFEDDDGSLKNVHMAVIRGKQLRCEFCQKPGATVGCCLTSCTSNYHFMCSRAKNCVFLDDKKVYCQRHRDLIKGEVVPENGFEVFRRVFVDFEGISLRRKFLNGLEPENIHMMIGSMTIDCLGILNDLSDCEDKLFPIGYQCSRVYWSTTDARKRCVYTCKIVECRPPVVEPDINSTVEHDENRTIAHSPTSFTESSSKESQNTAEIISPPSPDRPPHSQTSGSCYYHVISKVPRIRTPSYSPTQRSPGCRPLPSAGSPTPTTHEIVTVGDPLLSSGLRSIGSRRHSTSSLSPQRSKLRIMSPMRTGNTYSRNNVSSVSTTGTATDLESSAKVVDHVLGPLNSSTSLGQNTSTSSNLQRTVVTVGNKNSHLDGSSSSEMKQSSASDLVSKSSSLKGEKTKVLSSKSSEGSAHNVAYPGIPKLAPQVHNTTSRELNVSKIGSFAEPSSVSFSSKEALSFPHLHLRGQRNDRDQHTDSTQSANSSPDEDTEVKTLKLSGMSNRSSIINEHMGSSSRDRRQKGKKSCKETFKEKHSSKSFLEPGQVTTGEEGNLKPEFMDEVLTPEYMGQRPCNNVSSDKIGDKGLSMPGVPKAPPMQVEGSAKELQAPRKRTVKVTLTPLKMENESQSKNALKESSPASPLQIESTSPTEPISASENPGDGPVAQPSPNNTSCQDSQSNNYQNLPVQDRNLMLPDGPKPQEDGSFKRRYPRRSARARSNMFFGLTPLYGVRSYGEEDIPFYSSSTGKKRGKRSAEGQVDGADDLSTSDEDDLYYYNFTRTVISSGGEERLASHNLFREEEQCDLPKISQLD
# T6 sequence (Q03164 2719-3969 limits assumed): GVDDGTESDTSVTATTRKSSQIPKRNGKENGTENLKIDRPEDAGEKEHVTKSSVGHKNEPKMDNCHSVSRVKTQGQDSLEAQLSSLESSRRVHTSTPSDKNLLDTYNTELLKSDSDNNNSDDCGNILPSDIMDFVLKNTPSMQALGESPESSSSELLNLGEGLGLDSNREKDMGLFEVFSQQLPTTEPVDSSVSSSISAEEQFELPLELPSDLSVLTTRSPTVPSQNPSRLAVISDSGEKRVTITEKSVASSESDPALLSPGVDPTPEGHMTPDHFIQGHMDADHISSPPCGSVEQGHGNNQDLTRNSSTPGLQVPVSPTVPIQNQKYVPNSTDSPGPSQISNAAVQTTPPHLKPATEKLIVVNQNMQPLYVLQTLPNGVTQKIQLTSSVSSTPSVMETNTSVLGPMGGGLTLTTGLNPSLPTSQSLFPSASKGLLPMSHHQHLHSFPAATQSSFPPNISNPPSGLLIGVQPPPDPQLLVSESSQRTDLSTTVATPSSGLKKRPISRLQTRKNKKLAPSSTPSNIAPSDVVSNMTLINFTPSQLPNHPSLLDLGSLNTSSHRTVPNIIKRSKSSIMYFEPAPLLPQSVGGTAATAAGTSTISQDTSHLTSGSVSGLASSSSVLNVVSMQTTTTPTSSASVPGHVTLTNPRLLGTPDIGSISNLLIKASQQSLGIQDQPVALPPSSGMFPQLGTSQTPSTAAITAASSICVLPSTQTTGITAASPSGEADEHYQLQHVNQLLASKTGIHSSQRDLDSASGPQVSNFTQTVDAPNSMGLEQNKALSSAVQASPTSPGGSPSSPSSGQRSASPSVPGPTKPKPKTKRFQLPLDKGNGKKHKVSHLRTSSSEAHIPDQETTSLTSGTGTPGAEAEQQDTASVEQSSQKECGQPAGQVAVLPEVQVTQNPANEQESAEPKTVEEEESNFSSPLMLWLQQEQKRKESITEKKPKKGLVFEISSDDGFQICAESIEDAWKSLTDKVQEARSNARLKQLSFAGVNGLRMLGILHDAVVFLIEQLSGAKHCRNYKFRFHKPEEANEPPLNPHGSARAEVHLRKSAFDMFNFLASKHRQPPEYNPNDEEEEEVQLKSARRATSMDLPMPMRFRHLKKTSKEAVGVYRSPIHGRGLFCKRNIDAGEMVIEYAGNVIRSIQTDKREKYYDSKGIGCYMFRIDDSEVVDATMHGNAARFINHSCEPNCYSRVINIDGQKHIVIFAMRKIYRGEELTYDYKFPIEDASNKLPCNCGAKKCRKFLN
# [12] = biological target: T6, Histone-lysine N-methyltransferase 2A; assay: as §4; remark: listed apart in the source
# Caspase-8 [13] = biological target: T1, Caspase-8; assay: Selectivity interaction (Eurofins (enzymatic assay)) EUB0002202a CASP8
# Caspase-7 [14] = biological target: T3, Caspase-7; assay: Selectivity interaction (Eurofins (enzymatic assay)) EUB0002202a CASP7
# Caspase-9 [15] = biological target: T2, Caspase-9; assay: Selectivity interaction (Eurofins (enzymatic assay)) EUB0002202a CASP9
# [16] = biological target: Alpha-1A adrenergic receptor (Homo sapiens) (UniProt P35348); assay: Selectivity interaction (Ricerca selectivity panel) EUB0001125a ADRA1A; settings: at 1 µM
# [17] = biological target: Muscarinic acetylcholine receptor M4 (Homo sapiens, UniProt P08173); assay: Selectivity interaction (US National Institute of Mental Health's Psychoactive Drug Screen Program Selectivity Panel) EUB0001125a CHRM4
# [18] = biological target: Alpha-2C adrenergic receptor (Homo sapiens, UniProt P18825); assay: Selectivity interaction (US National Institute of Mental Health's Psychoactive Drug Screen Program Selectivity Panel) EUB0001125a ADRA2C
# [19] = biological target: Muscarinic acetylcholine receptor M1 (Homo sapiens, UniProt P11229); assay: Selectivity interaction (US National Institute of Mental Health's Psychoactive Drug Screen Program Selectivity Panel) EUB0001125a CHRM1
# [20] = biological target: 5-hydroxytryptamine receptor 2A (Homo sapiens, UniProt P28223); assay: Selectivity interaction (US National Institute of Mental Health's Psychoactive Drug Screen Program Selectivity Panel) EUB0001125a HTR2A
# [21] = biological target: Muscarinic acetylcholine receptor M2 (Homo sapiens) (UniProt P08172); assay: Selectivity interaction (Ricerca selectivity panel) EUB0001125a CHRM2; settings: at 1 µM
# Sequence of Muscarinic acetylcholine receptor M2 (Homo sapiens) (P08172 whole entry): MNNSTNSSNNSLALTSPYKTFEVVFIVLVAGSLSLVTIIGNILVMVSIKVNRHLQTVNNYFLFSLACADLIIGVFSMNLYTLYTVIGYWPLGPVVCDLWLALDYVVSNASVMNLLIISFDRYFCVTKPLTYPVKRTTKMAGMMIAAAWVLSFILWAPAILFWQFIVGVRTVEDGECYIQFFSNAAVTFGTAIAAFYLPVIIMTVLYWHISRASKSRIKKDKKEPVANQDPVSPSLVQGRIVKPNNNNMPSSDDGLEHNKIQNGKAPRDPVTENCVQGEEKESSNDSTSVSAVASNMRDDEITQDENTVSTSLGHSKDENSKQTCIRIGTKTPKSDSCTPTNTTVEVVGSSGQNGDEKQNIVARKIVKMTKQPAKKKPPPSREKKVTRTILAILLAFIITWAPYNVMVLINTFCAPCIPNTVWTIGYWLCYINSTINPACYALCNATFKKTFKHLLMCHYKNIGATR
# [22] = biological target: Alpha-1B adrenergic receptor (Homo sapiens) (UniProt P35368); assay: Selectivity interaction (Ricerca selectivity panel) EUB0001125a ADRA1B; settings: at 1 µM
# [23] = biological target: Alpha-1A adrenergic receptor (Homo sapiens, UniProt P35348); assay: Selectivity interaction (US National Institute of Mental Health's Psychoactive Drug Screen Program Selectivity Panel) EUB0001125a ADRA1A
# [24] = biological target: Muscarinic acetylcholine receptor M2 (Homo sapiens, UniProt P08172); assay: Selectivity interaction (US National Institute of Mental Health's Psychoactive Drug Screen Program Selectivity Panel) EUB0001125a CHRM2
# Sequence of Muscarinic acetylcholine receptor M2 (P08172 whole entry): as above
# T1 sequence (Q14790 217-374 limits assumed): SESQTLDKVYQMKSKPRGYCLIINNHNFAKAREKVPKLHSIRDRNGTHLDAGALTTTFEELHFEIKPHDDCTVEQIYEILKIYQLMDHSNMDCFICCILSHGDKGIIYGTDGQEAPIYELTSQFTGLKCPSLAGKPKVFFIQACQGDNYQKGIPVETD
# T1 sequence (Q14790 385-479 limits assumed): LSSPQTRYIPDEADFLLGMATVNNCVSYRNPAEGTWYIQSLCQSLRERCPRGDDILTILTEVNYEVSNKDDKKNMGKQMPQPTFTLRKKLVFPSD
smiles,measurement,setting,value
CC[C@H](C)[C@H](NC(=O)[C@H](CCC(=O)O)NC(=O)[C@@H](NC(C)=O)C(C)C)C(=O)N[C@H](C=O)CC(=O)O (Ac-VEID-aldehyde),IC50,Caspase-8 [1],26 nM
same,IC50,Caspase-8 [2],26 nM
same,IC50,Caspase-9 [3],2 nM
same,IC50,Caspase-7 [4],162 nM
same,IC50,Caspase-7 [5],162 nM
same,IC50,Caspase-9 [6],2 nM
CC(=O)N[C@@H](CC(C)C)C(=O)N[C@@H](CCC(=O)O)C(=O)N[C@H](C(=O)N[C@H](C=O)CC(=O)O)C(C)C (Ac-LEVD-aldehyde),IC50,Caspase-7 [7],24 nM
same,IC50,Caspase-6,57 nM
same,IC50,Caspase-2,1700 nM
same,IC50,Caspase-10,140 nM
same,IC50,Caspase-3,57 nM
same,IC50,Caspase-9 [8],2.1 nM
same,IC50,Caspase-8 [9],3.3 nM
same,IC50,Caspase-5,140 nM
CN(C)CCCN(CC[C@H](N)C(=O)O)C[C@H]1O[C@@H](n2cnc3c(N)ncnc32)[C@H](O)[C@@H]1O,Ki,[10],345 nM
Cc1nc(F)ccc1-c1cc(Cn2ccn(C)c2=N)cc(C(=O)NCc2ccc(Cl)c(Cl)c2)c1,IC50,[11],19.9 nM
same,IC50,[12],19.9 nM
COC(=O)CC[C@H](NC(=O)[C@H](Cc1c[nH]c2ccccc12)NC(=O)OCc1ccccc1)C(=O)N[C@@H](Cc1cnc[nH]1)C(=O)N[C@@H](CC(=O)OC)C(=O)CF (Cbz-WE(OMe)HD(OMe)-CH2F),IC50,Caspase-8 [13],220 nM
same,IC50,Caspase-7 [14],580 nM
same,IC50,Caspase-9 [15],240 nM
COc1cc2c(NC3CCN(C(C)C)CC3)nc(C3CCCCC3)nc2cc1OCCCN1CCCC1,Inhibition of control,[16],90%
same,Ki,[17],510 nM
same,Ki,[18],400 nM
same,Ki,[19],370 nM
same,Ki,[20],1200 nM
same,Inhibition of control,[21],64%
same,Inhibition of control,[22],69%
same,Ki,[23],500 nM
same,Ki,[24],510 nM
